Results as given in PubChem BioAssay AID1918948 (Molecular Pharmacology Branch, DTP, NCI, 2023).

System: K-562 leukemia growth, % test/control
Experiment: Anticancer human tumor K-562 cell line growth inhibition;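 note: spheroids exposed to compounds for 7 days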;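 for viability, T/C: 100% = DMSO vehicle wells and lower values mean fewer viable cells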
Conditions: spheroids with HUVEC and MSC; for IC50: curve of first compound; for viability, T/C: stronger effect = lower value
Procedure, shortened: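 Multicellular complex spheroids of tumor cells with human endothelial cells (HUVEC) and mesenchymal stem cells; the LSD1 inhibitor iadademstat was combined with standard-of-care or investigational agents. Top concentration at or near clinical Cmax, half-log dilutions; final DMSO ≤0.25%.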

[1] = second compound 0.1 µM, first compound 0.00316 µM
[2] = second compound 0.1 µM, first compound 0.01 µM
[3] = second compound 0.1 µM, first compound 0.0316 µM
[4] = second compound 0.1 µM, first compound 0.1 µM
[5] = second compound 0.1 µM, first compound 0.316 µM
[6] = second compound 0.1 µM, first compound 1 µM
[7] = second compound 0.316 µM, first compound 0.00316 µM
[8] = second compound 0.316 µM, first compound 0.01 µM
[9] = second compound 0.316 µM, first compound 0.0316 µM
[10] = second compound 0.316 µM, first compound 0.1 µM
[11] = second compound 0.316 µM, first compound 0.316 µM
[12] = second compound 0.316 µM, first compound 1 µM
[13] = second compound 1 µM, first compound 0.00316 µM
[14] = second compound 1 µM, first compound 0.01 µM
[15] = second compound 1 µM, first compound 0.0316 µM
[16] = second compound 1 µM, first compound 0.1 µM
[17] = second compound 1 µM, first compound 0.316 µM
[18] = second compound 1 µM, first compound 1 µM
[19] = second compound 3.16 µM, first compound 0.00316 µM
[20] = second compound 3.16 µM, first compound 0.01 µM
[21] = second compound 3.16 µM, first compound 0.0316 µM
[22] = second compound 3.16 µM, first compound 0.1 µM
[23] = second compound 3.16 µM, first compound 0.316 µM
[24] = second compound 3.16 µM, first compound 1 µM
[25] = second compound 10 µM, first compound 0.00316 µM
[26] = second compound 10 µM, first compound 0.01 µM
[27] = second compound 10 µM, first compound 0.0316 µM
[28] = second compound 10 µM, first compound 0.1 µM
[29] = second compound 10 µM, first compound 0.316 µM
[30] = second compound 10 µM, first compound 1 µM
[31] = second compound 0.1 µM, first compound 3.16 µM
[32] = second compound 0.1 µM, first compound 10 µM
[33] = second compound 0.316 µM, first compound 3.16 µM
[34] = second compound 0.316 µM, first compound 10 µM
[35] = second compound 1 µM, first compound 3.16 µM
[36] = second compound 1 µM, first compound 10 µM
[37] = second compound 3.16 µM, first compound 3.16 µM
[38] = second compound 3.16 µM, first compound 10 µM
[39] = second compound 10 µM, first compound 3.16 µM
[40] = second compound 10 µM, first compound 10 µM

| SMILES | IC50 (second compound 0.1 µM) [nM] | IC50 (second compound 0.316 µM) [nM] | IC50 (second compound 1 µM) [nM] | IC50 (second compound 3.16 µM) [nM] | IC50 (second compound 10 µM) [nM] | viability, T/C [3] [%] | viability, T/C [4] [%] | viability, T/C [5] [%] | viability, T/C [6] [%] | viability, T/C [9] [%] | viability, T/C [10] [%] | viability, T/C [11] [%] | viability, T/C [12] [%] | viability, T/C [15] [%] | viability, T/C [16] [%] | viability, T/C [17] [%] | viability, T/C [18] [%] | viability, T/C [21] [%] | viability, T/C [22] [%] | viability, T/C [23] [%] | further results |
| --- | --- | --- | --- | --- | --- | --- | --- | --- | --- | --- | --- | --- | --- | --- | --- | --- | --- | --- | --- | --- | --- |
| CC1COCCN1c1cc(-c2ccnn2C)c2ccnc(-c3ccn[nH]3)c2n1 (stereo not given) + NC1CCC(NC2CC2c2ccccc2)CC1 | 11.2 | 12.2 | 11.4 | 10.1 | 7.2 | 10.2 | 3.75 | 2.62 | 2.45 | 12.9 | 3.52 | 2.63 | 2.48 | 9.5 | 3.51 | 2.76 | 2.82 | 11.5 | 3.8 | 3.16 | viability, T/C [1]: 90.4%; viability, T/C [2]: 54.5%; viability, T/C [7]: 91%; viability, T/C [8]: 57.9%; viability, T/C [13]: 92.7%; viability, T/C [14]: 55.1%; viability, T/C [19]: 92.2%; viability, T/C [20]: 50.2%; viability, T/C [24]: 2.7%; viability, T/C [25]: 83.3%; viability, T/C [26]: 36.7%; viability, T/C [27]: 8.26%; viability, T/C [28]: 4.09%; viability, T/C [29]: 2.75%; viability, T/C [30]: 3.72% |
| CC1COCCN1c1cc(C2(S(C)(=N)=O)CC2)nc(-c2ccnc3[nH]ccc23)n1 (stereo not given) + NC1CCC(NC2CC2c2ccccc2)CC1 | 578 | 603 | 614 | 602 | 511 | 101 | 97.5 | 81.8 | 21.2 | 104 | 96.9 | 84.5 | 23.1 | 106 | 101 | 86.2 | 23.4 | 103 | 99.7 | 84.5 | viability, T/C [31]: 3.64%; viability, T/C [32]: 2.72%; viability, T/C [33]: 4.12%; viability, T/C [34]: 2.74%; viability, T/C [35]: 3.81%; viability, T/C [36]: 2.62%; viability, T/C [24]: 22.9%; viability, T/C [37]: 3.69%; viability, T/C [38]: 2.79%; viability, T/C [27]: 96.6%; viability, T/C [28]: 98.2%; viability, T/C [29]: 73.2%; viability, T/C [30]: 17.3%; viability, T/C [39]: 3.62%; viability, T/C [40]: 2.14% |
| COc1ccc([C@@H](O)c2cc(-c3ncnc4cc(N5CCOCC5)ccc34)c(F)cc2Cl)nn1 + NC1CCC(NC2CC2c2ccccc2)CC1 | 9230 | 9900 | > 10000 | 9830 | 8180 | 100 | 100 | 101 | 103 | 101 | 101 | 104 | 106 | 105 | 103 | 105 | 105 | 101 | 102 | 103 | viability, T/C [31]: 96.6%; viability, T/C [32]: 46.5%; viability, T/C [33]: 98.2%; viability, T/C [34]: 49.5%; viability, T/C [35]: 98.2%; viability, T/C [36]: 51.8%; viability, T/C [24]: 104%; viability, T/C [37]: 97.4%; viability, T/C [38]: 49.2%; viability, T/C [27]: 99.5%; viability, T/C [28]: 101%; viability, T/C [29]: 101%; viability, T/C [30]: 98.2%; viability, T/C [39]: 91.8%; viability, T/C [40]: 41% |
| O=C(C=Cn1cnc(-c2cc(C(F)(F)F)cc(C(F)(F)F)c2)n1)NNc1cnccn1 + NC1CCC(NC2CC2c2ccccc2)CC1 | 59.8 | 58.9 | 61 | 60.6 | 43.1 | 69.5 | 36.6 | 4.19 | 1.72 | 69.2 | 36.5 | 4.44 | 1.67 | 70 | 38.2 | 4.8 | 2.29 | 67.8 | 38.8 | 4.71 | viability, T/C [1]: 104%; viability, T/C [2]: 92.3%; viability, T/C [7]: 107%; viability, T/C [8]: 92%; viability, T/C [13]: 107%; viability, T/C [14]: 91.5%; viability, T/C [19]: 103%; viability, T/C [20]: 92.5%; viability, T/C [24]: 1.78%; viability, T/C [25]: 88.8%; viability, T/C [26]: 75.1%; viability, T/C [27]: 57.1%; viability, T/C [28]: 33.7%; viability, T/C [29]: 3.55%; viability, T/C [30]: 2.29% |
